Consider 15 molecules from patent US9179674B2, “Macrocyclic picolinamide compounds with fungicidal activity” (DOW AGROSCIENCES LLC, priority 2013, dated 2015).

Structures are written as SMILES. Read-outs that look alike come from different tables or passages of the source.

Experiment [1] concerns Mycosphaerella graminicola; Anamorph: Septoria tritici. In words: Leaf Blotch of Wheat fungicidal activity (SEPTTR). The experiment is classed as in vivo. The following applies: Zymoseptoria tritici; for pest or weed control at 100 ppm: rate 100 ppm; for pest or weed control at 121.5 g/ha: rate 121.5 g/H. As to the method: Evaluation of Fungicidal Activity: Leaf Blotch of Wheat (Mycosphaerella graminicola; Anamorph: Septoria tritici; Bayer code […]) Technical grades of materials were dissolved in acetone, which were then mixed with nine volumes of water containing 110 ppm Triton X-100. The fungicide solutions were applied onto wheat seedlings using an automated booth sprayer to run-off. All sprayed plants were allowed to air dry prior to further handling. All fungicides were evaluated using the aforementioned method for their activity vs. all target diseases. Wheat leaf blotch and brown rust activity were also evaluated using track spray applications, in which case the fungicides were formulated as EC formulations, containing 0.1% Trycol 5941 in the spray solutions. Wheat plants (variety Yuma) were grown from seed in a greenhouse in 50% mineral soil/50% soil-less Metro mix until the first leaf was fully emerged, with 7-10 seedlings per pot. These plants were inoculated with an aqueous spore suspension of Septoria tritici either prior to or after fungicide treatments. After inoculation the plants were kept in 100% relative humidity (one day in a dark dew chamber followed by two to three days in a lighted dew chamber at 20° C.) to permit spores to germinate and infect the leaf. The plants were then transferred to a greenhouse set at 20° C. for disease to develop. When disease symptoms were fully expressed on the 1st leaves of untreated plants, infection levels were assessed on a scale of 0 to 100 percent disease severity. Percent disease control was calculated using the ratio of disease severity on treated plants relative to untreated plants.

For a further experiment, the system named is Puccinia triticina. In words: Wheat Brown Rust fungicidal activity (PUCCRT). Format: in vivo. The settings on record: Puccinia triticina; for pest or weed control at 100 ppm: rate 100 ppm; for pest or weed control at 121.5 g/ha: rate 121.5 g/H. How it is done: Technical grades of materials were dissolved in acetone, which were then mixed with nine volumes of water containing 110 ppm Triton X-100. The fungicide solutions were applied onto wheat seedlings using an automated booth sprayer to run-off. All sprayed plants were allowed to air dry prior to further handling. All fungicides were evaluated using the aforementioned method for their activity vs. all target diseases. Wheat leaf blotch and brown rust activity were also evaluated using track spray applications, in which case the fungicides were formulated as EC formulations, containing 0.1% Trycol 5941 in the spray solutions. Wheat plants (variety Yuma) were grown from seed in a greenhouse in 50% mineral soil/50% soil-less Metro mix until the first leaf was fully emerged, with 7-10 seedlings per pot. These plants were inoculated with an aqueous spore suspension of Septoria tritici either prior to or after fungicide treatments. After inoculation the plants were kept in 100% relative humidity (one day in a dark dew chamber followed by two to three days in a lighted dew chamber at 20° C.) to permit spores to germinate and infect the leaf. The plants were then transferred to a greenhouse set at 20° C. for disease to develop. When disease symptoms were fully expressed on the 1st leaves of untreated plants, infection levels were assessed on a scale of 0 to 100 percent disease severity. Percent disease control was calculated using the ratio of disease severity on treated plants relative to untreated plants. Evaluation of Fungicidal Activity: Wheat Brown Rust (Puccinia triticina; Synonym: Puccinia recondite f sp. tritici; Bayer code PUCCRT) Wheat plants (variety Yuma) were grown from seed in a greenhouse in 50% mineral soil/50% soil-less Metro mix until the first leaf was fully emerged, with 7-10 seedlings per pot. These plants were inoculated with an aqueous spore suspension of Puccinia triticina either prior to or after fungicide treatments. After inoculation the plants were kept in a dark dew room at 22° C. with 100% relative humidity overnight to permit spores to germinate and infect the leaf. The plants were then transferred to a greenhouse set at 24° C. for disease to develop. Fungicide formulation, application and disease assessment followed the procedures as described in the Example A.

[2] abbreviates: 24 h, 1 Day Protectant, read-out: Disease control SEPTTR 1DP.
[3] abbreviates: 72 h, 3 Day Curative, read-out: Disease control SEPTTR 3DC.
Setting [4] is: 24 h, 1 Day Protectant, read-out: Disease control PUCCRT 1DP.
The mark [5] stands for this setting: 72 h, 3 Day Curative, read-out: Disease control PUCCRT 3DC.

As to `COc1ccnc(C(=O)N[C@H]2COC[C@H](CCC(C)C)[C@@H](OC3CCCC3)[C@H](C)OC2=O)c1O` [Compound F39], the pest or weed control at 100 ppm (in experiment [1] (setting [2]); in experiment [1] (setting [3]); in the experiment on Puccinia triticina (setting [4]); in the experiment on Puccinia triticina (setting [5])) was 80 to 100% throughout.
For `COc1ccnc(C(=O)N[C@H]2COC[C@H](Cc3cc(F)c(F)c(F)c3)[C@@H](OCC(C)C)[C@H](C)OC2=O)c1O` [Compound F40], the pest or weed control at 100 ppm in experiment [1] (setting [2]) lay in the range of 80 to 100%; in experiment [1] (setting [3]) it was 80 to 100%; with Puccinia triticina (setting [4]) it was 0 to 80%.
With `COc1ccnc(C(=O)N[C@H]2COC[C@H](Cc3ccc(C)cc3)[C@@H](OCC(C)C)[C@H](C)OC2=O)c1O` [Compound F48, 3-hydroxy-N-((3S,7S,8R,9S)-8-isobutoxy-9-methyl-7-(4-methylbenzyl)-2-oxo-1,5-dioxonan-3-yl)-4-methoxypicolinamide], the pest or weed control at 100 ppm in experiment [1] (setting [2]) is 80 to 100%; in experiment [1] (setting [3]), 0 to 80%; in the experiment on Puccinia triticina (setting [4]), 80 to 100%; in the experiment on Puccinia triticina (setting [5]) it was 80 to 100%.
Consider `CCCCCO[C@@H]1[C@@H](Cc2ccc(C)cc2)COC[C@H](NC(=O)c2nccc(OC)c2OC(C)=O)C(=O)O[C@H]1C` [Compound F53], for which the pest or weed control at 100 ppm (in experiment [1] (setting [2]); in experiment [1] (setting [3]); in the experiment with Puccinia triticina (setting [4]); in the experiment with Puccinia triticina (setting [5])) was 80 to 100% each time. The pest or weed control at 121.5 g/ha in experiment [1] (setting [2]) was in the range of 80 to 100%; in experiment [1] (setting [3]), 0 to 80%; in the experiment on Puccinia triticina (setting [4]) it was 80 to 100%; with Puccinia triticina (setting [5]), 0 to 80%.
As to `CCCCCO[C@@H]1[C@@H](CCc2ccccc2)COC[C@H](NC(=O)c2nccc(OC)c2OC(C)=O)C(=O)O[C@H]1C` [Compound F55], the pest or weed control at 100 ppm (in experiment [1] (setting [2]); in experiment [1] (setting [3]); in the experiment with Puccinia triticina (setting [4]); with Puccinia triticina (setting [5])) was 80 to 100% in each case.
Turning to `COc1ccnc(C(=O)N[C@H]2COC[C@H](CCc3ccccc3)[C@@H](OC(=O)C3CC3)[C@H](C)OC2=O)c1OC(C)=O` [Compound F57], the pest or weed control at 100 ppm (in experiment [1] (setting [2]); in experiment [1] (setting [3]); in the experiment on Puccinia triticina (setting [4]); in the experiment with Puccinia triticina (setting [5])) was 80 to 100% throughout. For the same molecule, the pest or weed control at 121.5 g/ha lay within 80 to 100% in experiment [1] (setting [2]), 80 to 100% in experiment [1] (setting [3]), 80 to 100% with Puccinia triticina (setting [4]) and 0 to 80% in the experiment with Puccinia triticina (setting [5]).
For the molecule `COc1ccnc(C(=O)N[C@H]2COC[C@H](CCc3ccccc3)[C@@H](Oc3ccc(C)cc3)[C@H](C)OC2=O)c1OC(C)=O` [Compound F58], the pest or weed control at 100 ppm (in experiment [1] (setting [2]); in experiment [1] (setting [3]); in the experiment with Puccinia triticina (setting [4]); in the experiment with Puccinia triticina (setting [5])) was 80 to 100% in each case. Besides, the pest or weed control at 121.5 g/ha in experiment [1] (setting [2]) lay in the range of 80 to 100%; in experiment [1] (setting [3]), 80 to 100%; with Puccinia triticina (setting [4]), 80 to 100%; in the experiment on Puccinia triticina (setting [5]), 0 to 80%.
Take `COc1ccnc(C(=O)N[C@H]2COC[C@H](Cc3ccc(F)cc3)[C@@H](Oc3ccccc3)[C@H](C)OC2=O)c1OC(C)=O` [Compound F59]: the pest or weed control at 100 ppm (in experiment [1] (setting [2]); in experiment [1] (setting [3]); in the experiment with Puccinia triticina (setting [4]); in the experiment on Puccinia triticina (setting [5])) was 80 to 100% in each case. The pest or weed control at 121.5 g/ha in experiment [1] (setting [2]) is 80 to 100%; in experiment [1] (setting [3]), 80 to 100%; with Puccinia triticina (setting [4]), 80 to 100%; in the experiment with Puccinia triticina (setting [5]), 0 to 80%.
Regarding `COc1ccnc(C(=O)N[C@H]2COC[C@H](Cc3ccc(C)cc3)[C@@H](OC(=O)C3CC3)[C@H](C)OC2=O)c1OC(C)=O` [Compound F61], the pest or weed control at 100 ppm (in experiment [1] (setting [2]); in experiment [1] (setting [3]); in the experiment with Puccinia triticina (setting [4]); in the experiment on Puccinia triticina (setting [5])) was 80 to 100% throughout. The pest or weed control at 121.5 g/ha in experiment [1] (setting [2]) fell in the range of 80 to 100%; in experiment [1] (setting [3]), 0 to 80%; in the experiment on Puccinia triticina (setting [4]) it was 80 to 100%; with Puccinia triticina (setting [5]), 0 to 80%.
As to `COc1ccnc(C(=O)N[C@H]2COC[C@H](Cc3ccc(C)cc3)[C@@H](OCCCC(F)(F)F)[C@H](C)OC2=O)c1OC(C)=O` [Compound F62], the pest or weed control at 100 ppm (in experiment [1] (setting [2]); in experiment [1] (setting [3]); in the experiment on Puccinia triticina (setting [4]); in the experiment with Puccinia triticina (setting [5])) was 80 to 100% in each case. Besides, the pest or weed control at 121.5 g/ha in experiment [1] (setting [2]) was 80 to 100%; in experiment [1] (setting [3]), 80 to 100%; in the experiment with Puccinia triticina (setting [4]), 80 to 100%; with Puccinia triticina (setting [5]), 0 to 80%.
Consider `COc1ccnc(C(=O)N[C@H]2COC[C@H](Cc3ccc(C)cc3)[C@@H](Oc3ccccc3)[C@H](C)OC2=O)c1OC(C)=O` [Compound F63], for which the pest or weed control at 100 ppm (in experiment [1] (setting [2]); in experiment [1] (setting [3]); in the experiment on Puccinia triticina (setting [4]); in the experiment on Puccinia triticina (setting [5])) was 80 to 100% in each case. The pest or weed control at 121.5 g/ha was 80 to 100% in experiment [1] (setting [2]), 80 to 100% in experiment [1] (setting [3]), 80 to 100% with Puccinia triticina (setting [4]) and 0 to 80% in the experiment with Puccinia triticina (setting [5]).
Take `COc1ccnc(C(=O)N[C@H]2COC[C@H](Cc3ccc(C)cc3)[C@@H](OC3CCCC3)[C@H](C)OC2=O)c1OC(C)=O` [Compound F64]: the pest or weed control at 100 ppm (in experiment [1] (setting [2]); in experiment [1] (setting [3]); in the experiment on Puccinia triticina (setting [4]); with Puccinia triticina (setting [5])) was 80 to 100% each time.
`COc1ccnc(C(=O)N[C@H]2COC[C@H](Cc3ccc(C(F)(F)F)cc3)[C@@H](OCC(C)C)[C@H](C)OC2=O)c1OC(C)=O` [Compound F65]: the pest or weed control at 100 ppm (in experiment [1] (setting [2]); in experiment [1] (setting [3]); in the experiment with Puccinia triticina (setting [4]); with Puccinia triticina (setting [5])) was 80 to 100% in each case. The pest or weed control at 121.5 g/ha in experiment [1] (setting [2]) was in the range of 80 to 100%; in experiment [1] (setting [3]) it was 80 to 100%; in the experiment on Puccinia triticina (setting [4]), 80 to 100%; in the experiment on Puccinia triticina (setting [5]) it was 0 to 80%.
As for `COc1ccnc(C(=O)N[C@H]2COC[C@H](Cc3ccc(C(F)(F)F)cc3)[C@@H](OC3CCCC3)[C@H](C)OC2=O)c1OC(C)=O` [Compound F66], the pest or weed control at 100 ppm in experiment [1] (setting [2]) was in the range of 80 to 100%; in experiment [1] (setting [3]), 0 to 80%; with Puccinia triticina (setting [4]), 80 to 100%; with Puccinia triticina (setting [5]), 0 to 80%. Besides, the pest or weed control at 121.5 g/ha lay within 80 to 100% in experiment [1] (setting [2]), 0 to 80% in experiment [1] (setting [3]), 80 to 100% with Puccinia triticina (setting [4]) and 0 to 80% in the experiment on Puccinia triticina (setting [5]).
As to `COc1ccnc(C(=O)N[C@H]2COC[C@H](Cc3ccc(C(F)(F)F)cc3)[C@@H](OC(=O)C(C)C)[C@H](C)OC2=O)c1OC(C)=O` [Compound F67], the pest or weed control at 100 ppm in experiment [1] (setting [2]) was 80 to 100%; in experiment [1] (setting [3]), 0 to 80%; with Puccinia triticina (setting [4]), 80 to 100%; with Puccinia triticina (setting [5]), 80 to 100%.
